The values that follow come from patent US8883782B2, “Spiro-tetracyclic ring compounds as beta-secretase modulators and methods of use” (Amgen Inc., priority 2010, dated 2014).

SMILES strings stand for the structures.

Experiment [1] has as its system Aβ40 in conditioned medium of cells stably expressing Amyloid Precursor Protein (APP). The experiment in a line: In vitro BACE cell-based assay (Aβ40 in conditioned medium, sandwich ELISA). As to conditions: Homo sapiens, HEK293, average IC50; read-out: HEK cell assay. The gist of the method:
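Step two: 10-point compound titration added, starting 100 μM or 10 μM, 0.1% DMSO. Step three: medium Aβ40 measured by ELISA, capture 3 h and detection 2 h at 4° C, TRF read.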

For experiment [2], the target named is Beta Secretase enzyme (BACE) (Homo sapiens, UniProt P56817). The experiment in a line: In vitro enzymatic BACE FRET (fluorescence resonance energy transfer) assay. The class given is biochemical. As to conditions: average IC50, enzyme assay; read-out: BACE 1 FRET assay. The gist of the method:
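Fluorescence read after Tris quench to neutral pH. Reaction: 50 nM fluorophore/quencher peptide substrate, 1 h, in 0.05 M acetate pH 4.2, 10% DMSO final, 100 uM genapol.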

Beta Secretase enzyme (BACE), sequence (P56817 46-501, species assumed): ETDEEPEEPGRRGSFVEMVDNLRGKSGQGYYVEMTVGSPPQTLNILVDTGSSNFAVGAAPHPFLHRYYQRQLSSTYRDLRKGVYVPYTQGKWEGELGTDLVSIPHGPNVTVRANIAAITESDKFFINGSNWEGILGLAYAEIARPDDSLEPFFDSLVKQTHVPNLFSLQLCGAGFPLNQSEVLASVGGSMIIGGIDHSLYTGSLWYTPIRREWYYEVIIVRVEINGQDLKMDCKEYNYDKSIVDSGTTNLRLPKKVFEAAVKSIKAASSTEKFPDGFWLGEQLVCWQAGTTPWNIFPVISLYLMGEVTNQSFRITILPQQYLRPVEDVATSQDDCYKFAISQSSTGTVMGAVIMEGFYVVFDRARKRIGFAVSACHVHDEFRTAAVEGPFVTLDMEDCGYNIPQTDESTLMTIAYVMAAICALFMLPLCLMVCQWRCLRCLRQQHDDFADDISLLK

Consider `NC1=N[C@@]2(CS1)c1cc(-c3cccnc3F)ccc1Oc1c2cc(C2=CCCOC2)nc1F` [Example 1028, (S)-3-(5,6-dihydro-2H-pyran-3-yl)-1-fluoro-7-(2-fluoropyridin-3-yl)-5′H-spiro[chromeno[2,3-c]pyridine-5,4′-thiazol]-2′-amine], for which the IC50 in experiment [1] was found to be 0.003 µM; in experiment [2], 0.0002 µM.
As to `NC1=N[C@@]2(CS1)c1cc(-c3cccnc3)ccc1Oc1c2cc(-c2ccnc(F)c2)nc1F` [Example 1030, (5S)-1-fluoro-3-(2-fluoro-4-pyridinyl)-7-(3-pyridinyl)spiro[chromeno[2,3-c]pyridine-5,4′-[1,3]thiazol]-2′-amine], the IC50 is 0.005 µM in experiment [1] and 0.0002 µM in experiment [2].
Taken in the same sequence, the figures for `NC1=N[C@@]2(CS1)c1cc(-c3cccnc3)ccc1Oc1c2cc(-c2cccnc2)nc1F` [Example 1031, (5S)-1-fluoro-3,7-di-3-pyridinylspiro[chromeno[2,3-c]pyridine-5,4′-[1,3]thiazol]-2′-amine] were 0.003 µM and 0.0003 µM.
Taken in the same sequence, the figures for `CC1(C)CC(c2cc3c(c(F)n2)Oc2ccc(-c4cccnc4F)cc2[C@@]32CSC(N)=N2)=CCO1` [Example 1034, (5S)-3-(2,2-dimethyl-3,6-dihydro-2H-pyran-4-yl)-1-fluoro-7-(2-fluoro-3-pyridinyl)spiro[chromeno[2,3-c]pyridine-5,4′-[1,3]thiazol]-2′-amine] were 0.005 µM and 0.0007 µM.
In the same order, the values of `CC1(C)C=C(c2cc3c(c(F)n2)Oc2ccc(-c4cccnc4F)cc2[C@]32CSC(N)=N2)CCO1` [Example 1035, (5R)-3-(6,6-dimethyl-3,6-dihydro-2H-pyran-4-yl)-1-fluoro-7-(2-fluoro-3-pyridinyl)spiro[chromeno[2,3-c]pyridine-5,4′-[1,3]thiazol]-2′-amine] are 0.014 µM and 0.0013 µM.
Regarding `CC1(C)CC(c2cc3c(c(F)n2)Oc2ccc(-c4cccnc4F)cc2[C@]32CSC(N)=N2)=CCO1` [Example 1036, (5R)-3-(2,2-dimethyl-3,6-dihydro-2H-pyran-4-yl)-1-fluoro-7-(2-fluoro-3-pyridinyl)spiro[chromeno[2,3-c]pyridine-5,4′-[1,3]thiazol]-2′-amine], the IC50 was 0.12 µM in experiment [1] and 0.002 µM in experiment [2].
Taken in the same sequence, the figures for `NC1=N[C@@]2(CO1)c1cc(-c3cncnc3)c(F)cc1Oc1c(F)cc(C3=CCOCC3)cc12` [Example 1038, (4S)-7′-(3,6-dihydro-2H-pyran-4-yl)-3′,5′-difluoro-2′-(5-pyrimidinyl)spiro[1,3-oxazole-4,9′-xanthen]-2-amine] were 0.01 µM and 0.0004 µM.
Take `NC1=N[C@@]2(CO1)c1cc(-c3cncnc3)c(F)cc1Oc1c(F)cc(C3=CCCOC3)cc12` [Example 1039, (4S)-7′-(5,6-dihydro-2H-pyran-3-yl)-3′,5′-difluoro-2′-(5-pyrimidinyl)spiro[1,3-oxazole-4,9′-xanthen]-2-amine]: the IC50 in experiment [1] turned out to be 0.008 µM; in experiment [2], 0.0004 µM.
Taken in the same sequence, the figures for `NC1=N[C@@]2(CO1)c1cc(-c3cncnc3)c(F)cc1Oc1c(F)cc(C3CCOCC3)cc12` [Example 1040, (4S)-3′,5′-difluoro-2′-(5-pyrimidinyl)-7′-(tetrahydro-2H-pyran-4-yl)spiro[1,3-oxazole-4,9′-xanthen]-2-amine] were 0.03 µM and 0.0015 µM.
For the molecule `NC1=N[C@@]2(CO1)c1cc(C3=CCOCC3)cc(F)c1Oc1ccc(-c3cncnc3)c(F)c12` [Example 1041, (4S)-7′-(3,6-dihydro-2H-pyran-4-yl)-1′,5′-difluoro-2′-(5-pyrimidinyl)spiro[1,3-oxazole-4,9′-xanthen]-2-amine], the IC50 is at least 10 µM in experiment [1] and 3.59 µM in experiment [2].
Taken in the same sequence, the figures for `NC1=N[C@]2(CO1)c1cc(C3=CCOCC3)cc(F)c1Oc1ccc(-c3cncnc3)c(F)c12` [Example 1042, (4R)-7′-(3,6-dihydro-2H-pyran-4-yl)-1′,5′-difluoro-2′-(5-pyrimidinyl)spiro[1,3-oxazole-4,9′-xanthen]-2-amine] were 0.117 µM and 0.0135 µM.
In the same order, the values of `NC1=N[C@@]2(CO1)c1cc(-c3cccnc3F)ccc1Oc1c(F)cc(OCCF)cc12` [Example 1043, (4S)-4′-fluoro-2′-(2-fluoroethoxy)-7′-(2-fluoro-3-pyridinyl)spiro[1,3-oxazole-4,9′-xanthen]-2-amine] are 0.057 µM and 0.001 µM.
For `NC1=N[C@@]2(CO1)c1cc(-c3cnccc3F)ccc1Oc1c(F)cc(C3=CCOCC3)cc12` [Example 1044, (4S)-2′-(3,6-dihydro-2H-pyran-4-yl)-4′-fluoro-7′-(4-fluoro-3-pyridinyl)spiro[1,3-oxazole-4,9′-xanthen]-2-amine], the IC50 in experiment [1] amounted to 0.018 µM; in experiment [2], 0.0005 µM.
In the same order, the values of `NC1=N[C@@]2(CO1)c1cc(-c3cnccc3F)ccc1Oc1c(F)cc(C3=CCCOC3)cc12` [Example 1045, (4S)-2′-(5,6-dihydro-2H-pyran-3-yl)-4′-fluoro-7′-(4-fluoro-3-pyridinyl)spiro[1,3-oxazole-4,9′-xanthen]-2-amine] are 0.012 µM and 0.0006 µM.
Taken in the same sequence, the figures for `NC1=N[C@]2(CO1)c1cc(C3=CCOCC3)cc(F)c1Oc1ccc(-c3cccnc3)c(F)c12` [Example 1046, (4R)-7′-(3,6-dihydro-2H-pyran-4-yl)-1′,5′-difluoro-2′-(3-pyridinyl)spiro[1,3-oxazole-4,9′-xanthen]-2-amine] were 0.209 µM and 0.0212 µM.
Taken in the same sequence, the figures for `NC1=N[C@]2(CO1)c1cc(C3=CCOCC3)cc(F)c1Oc1ccc(-c3cccnc3F)c(F)c12` [Example 1047, (4R)-7′-(3,6-dihydro-2H-pyran-4-yl)-1′,5′-difluoro-2′-(2-fluoro-3-pyridinyl)spiro[1,3-oxazole-4,9′-xanthen]-2-amine] were 0.095 µM and 0.0046 µM.
As for `NC1=N[C@]2(CO1)c1cc(C3=CCCOC3)cc(F)c1Oc1ccc(-c3cccnc3F)c(F)c12` [Example 1048, (4R)-7′-(5,6-dihydro-2H-pyran-3-yl)-1′,5′-difluoro-2′-(2-fluoro-3-pyridinyl)spiro[1,3-oxazole-4,9′-xanthen]-2-amine], the IC50 stood at 0.036 µM in experiment [1] and 0.0039 µM in experiment [2].
On to `NC1=N[C@]2(CO1)c1cc(C3=CCCOC3)cc(F)c1Oc1ccc(-c3cncnc3)c(F)c12` [Example 1049, (4R)-7′-(5,6-dihydro-2H-pyran-3-yl)-1′,5′-difluoro-2′-(5-pyrimidinyl)spiro[1,3-oxazole-4,9′-xanthen]-2-amine], for which the values for the IC50 in experiment [1] and in experiment [2] were 0.085 µM and 0.0156 µM, respectively.
In the same order, the values of `NC1=N[C@]2(CO1)c1cc(N3CC[C@@H](F)C3)cc(F)c1Oc1ccc(-c3cncnc3)c(F)c12` [Example 1052, (4R)-1′,5′-difluoro-7′-((3R)-3-fluoro-1-pyrrolidinyl)-2′-(5-pyrimidinyl)spiro[1,3-oxazole-4,9′-xanthen]-2-amine] are 0.067 µM and 0.0383 µM.
Taken in the same sequence, the figures for `NC1=N[C@]2(CO1)c1cc(N3CC[C@@H](F)C3)cc(F)c1Oc1ccc(-c3cccnc3F)c(F)c12` [Example 1053, (4R)-1′,5′-difluoro-2′-(2-fluoro-3-pyridinyl)-7′-((3R)-3-fluoro-1-pyrrolidinyl)spiro[1,3-oxazole-4,9′-xanthen]-2-amine] were 0.079 µM and 0.0103 µM.
In the same order, the values of `NC1=N[C@@]2(CO1)c1cc(-c3cccnc3F)ccc1Oc1c(F)cc(N3CC4CC4C3)cc12` (stereo partly drawn) [Example 1054, (4S)-2′-(3-azabicyclo[3.1.0]hex-3-yl)-4′-fluoro-7′-(2-fluoro-3-pyridinyl)spiro[1,3-oxazole-4,9′-xanthen]-2-amine] are 0.062 µM and 0.0006 µM.
`NC1=N[C@@]2(CO1)c1cc(-c3cnccc3F)ccc1Oc1c(F)cc(C3CCOCC3)cc12` [Example 1056, (4S)-4′-fluoro-7′-(4-fluoro-3-pyridinyl)-2′-(tetrahydro-2H-pyran-4-yl)spiro[1,3-oxazole-4,9′-xanthen]-2-amine]: the IC50 in experiment [1] amounted to 0.017 µM; in experiment [2], 0.003 µM.
Taken in the same sequence, the figures for `Cc1cccc(Oc2ccc3c(c2)[C@@]2(COC(N)=N2)c2cc(N4CCOCC4)cc(F)c2O3)n1` [Example 1057, (4S)-4′-fluoro-7′-((6-methyl-2-pyridinyl)oxy)-2′-(4-morpholinyl)spiro[1,3-oxazole-4,9′-xanthen]-2-amine] were 0.687 µM and 0.0732 µM.
As for `Cc1ccc(Oc2ccc3c(c2)[C@@]2(COC(N)=N2)c2cc(N4CCOCC4)cc(F)c2O3)nc1` [Example 1058, (4S)-4′-fluoro-7′-((5-methyl-2-pyridinyl)oxy)-2′-(4-morpholinyl)spiro[1,3-oxazole-4,9′-xanthen]-2-amine], the IC50 is 0.604 µM in experiment [1] and 0.0507 µM in experiment [2].
Consider `Cc1ccnc(Oc2ccc3c(c2)[C@@]2(COC(N)=N2)c2cc(N4CCOCC4)cc(F)c2O3)c1` [Example 1059, (4S)-4′-fluoro-7′-((4-methyl-2-pyridinyl)oxy)-2′-(4-morpholinyl)spiro[1,3-oxazole-4,9′-xanthen]-2-amine], for which the IC50 in experiment [1] worked out at 0.609 µM; in experiment [2], 0.0339 µM.
Taken in the same sequence, the figures for `NC1=N[C@@]2(CO1)c1cc(Oc3cccc(Cl)n3)ccc1Oc1c(F)cc(N3CCOCC3)cc12` [Example 1060, (4S)-7′-((6-chloro-2-pyridinyl)oxy)-4′-fluoro-2′-(4-morpholinyl)spiro[1,3-oxazole-4,9′-xanthen]-2-amine] were 0.318 µM and 0.0335 µM.
Taken in the same sequence, the figures for `NC1=N[C@@]2(CO1)c1cc(Oc3ccc(Cl)cn3)ccc1Oc1c(F)cc(N3CCOCC3)cc12` [Example 1061, (4S)-7′-((5-chloro-2-pyridinyl)oxy)-4′-fluoro-2′-(4-morpholinyl)spiro[1,3-oxazole-4,9′-xanthen]-2-amine] were 0.538 µM and 0.0574 µM.
